Experimental data as given in US8524703B2, “Bridgehead amine ring-fused indoles and indolines” (AbbVie Inc., priority 2009, dated 2013).

System: SK-N-SH human neuroblastoma cells
Assay: Serum Deprivation/JC-1 Mitochondrial Membrane Potential (MMP) Assay
Type: cell-based
Settings: for Emax / JC-1 max %: percent maximal JC-1 ratio normalized to peak value for 10 μM dimebolin; for Emax: read-out: JC-1 max %; for EC50: serum deprivation ~18 hours, JC-1 ratio normalized to peak value for 10 μM dimebolin
Procedure: Tissue Culture: SK-N-SH human neuroblastoma cells obtained from American Type Culture Collection (Rockville, Md.) were maintained in the log phase of growth in Minimal Essential Media (MEM), 10% heat inactivated fetal calf serum and 100 units/mL antibiotic-antimycotic (AA). Cells were cultured and maintained in a humidified incubator at 37° C. under 5% CO2 and 95% air. Cells were trypsinized (0.25%) and subcultured every 3 days and used from 15-18 passages. All cell culture supplies were obtained from Invitrogen (Carlsbad, Calif.).
Serum Deprivation/JC-1 Mitochondrial Membrane Potential (MMP) Assay.
SK-N-SH cells were plated 2-3 days in advance at a concentration of 50,000 cells/well onto collagen coated black-walled 96 well plates (Becton-Dickinson, Bedford, Mass.) in a total volume of 200 μL. On day of experimental treatment, the media containing serum was aspirated from each well and rinsed once with MEM/1% AA without serum. The cells then were incubated overnight in 100 μL of MEM/1% AA (no serum) with and without dimebolin or novel chemical entities overnight for ˜18 hours. The following day, JC-1 dye (5,5′,6,6′-tetrachloro-1,1′,3,3′-tetraethylbenzimidazolcarbocyanide) was diluted 1:10 into MEM media according to the JC-1 Mitochondrial Membrane Potential Assay Kit: (Cayman Chemical Company, Ann Arbor, Mich.) and then 10 μL of the JC-1 dye solution was added to each well. The plates were centrifuged for 5 minutes at 400×g at room temperature followed by 40 minute incubation at 37° C. The plates were washed twice with 200 μL of provided Assay Buffer followed an addition of 100 μL of Assay Buffer to each well. The plates were read with an excitation and emission of 560 nm and 595 nM for red fluorescence and with an excitation and emission of […] and 535 nM for green fluorescence to determine the final JC-1 value taking the red to green fluorescence ratio. This assay is based on change in mitochondrial membrane potential (MMP) using this lipophilic cationic dye, JC-1, by monitoring the changes in the ratio of red to green fluorescence as the MMP depolarizes. This change in MMP reflects the health of the cell with healthy, viable cells have a high JC-1 ratio and high MMP whereas apoptotic, unhealthy cells have a low JC-1 ratio or low MMP.
For the ability of compounds to reverse the stress due to serum deprivation and increase the JC-1 ratio, the percent maximal intensity in JC-1 ratio was normalized to that induced by the peak value for 10 μM dimebolin and plotted against the compound concentration to calculate EC50 values and to control for plate-to-plate variability. Concentration-response data were analyzed using GraphPad Prism (San Diego, Calif.); the EC50 values were derived from a single curve fit to the mean data of n=2-3, in duplicates.
All compounds were dissolved in dimethyl sulfoxide at 10 mM stock solutions and tested at a concentration that the dimethyl sulfoxide levels never exceeded 1%.

Row | SMILES | Emax (Homo sapiens, SK-N-SH) | EC50 (Homo sapiens, SK-N-SH) | JC-1 max % | EC50
1 | Cc1ccc(C#Cc2ccc3c4c([nH]c3c2)C2CCN(CC2)C4)cn1 [Example 22, 8-[(6-methylpyridin-3-yl)ethynyl]-3,4,5,6-tetrahydro-1H-2,5-ethanoazepino[4,3-b]indole] | 185% | 8.66 µM | – | –
2 | c1ccc(CCCCCc2cccc3c4c([nH]c23)C2CCN(CC2)C4)cc1 [Example 7, 7-(5-phenylpentyl)-3,4,5,6-tetrahydro-1H-2,5-ethanoazepino[4,3-b]indole] | 62% | 1.43 µM | – | –
3 | Clc1ccc(/C=C/c2cccc3c4c([nH]c23)C2CCN(CC2)C4)cc1 [Example 4, 7-[(E)-2-(4-chlorophenyl)vinyl]-3,4,5,6-tetrahydro-1H-2,5-ethanoazepino[4,3-b]indole] | 123% | 4.09 µM | – | –
4 | Cc1ccc(CCc2ccc3[nH]c4c(c3c2)CN2CCC4CC2)cn1 [Example 9, 9-[2-(6-methylpyridin-3-yl)ethyl]-3,4,5,6-tetrahydro-1H-2,5-ethanoazepino[4,3-b]indole] | 110% | 3.94 µM | – | –
5 | C(#Cc1cccc2c3c([nH]c12)C1CCN(CC1)C3)c1ccncc1 [Example 21, 7-(pyridin-4-ylethynyl)-3,4,5,6-tetrahydro-1H-2,5-ethanoazepino[4,3-b]indole] | 104% | 3.69 µM | – | –
6 | Cc1ccc(/C=C/c2cccc3c4c([nH]c23)C2CC[N+]([O-])(CC2)C4)cn1 [Example 28, 7-[(E)-2-(6-methylpyridin-3-yl)yinyl]-1,2,3,4,5,6-hexahydro-2,5-ethanoazepino[4,3-b]indole 2-oxide] | – | – | 50% | > 30 µM
7 | Cc1ccc(/C=C\c2cccc3c4c([nH]c23)C2CCN(CC2)C4)cn1 [Example 31, 7-[(Z)-2-(6-methylpyridin-3-yl)vinyl]-3,4,5,6-tetrahydro-1H-2,5-ethanoazepino[4,3-b]indole] | 120% | 7.75 µM | – | –
8 | C(=C\c1cccc2c3c([nH]c12)C1CCN(CC1)C3)/c1cncnc1 (single isomer, unassigned) [Example 29, 7-[(E)-2-(pyrimidin-5-yl)vinyl]-3,4,5,6-tetrahydro-1H-2,5-ethanoazepino[4,3-b]indole] | 54% | 5.33 µM | – | –
9 | C(=C\c1cccc2c3c([nH]c12)C1CCN(CC1)C3)/CCCc1ccccc1 [Example 5, 7-[(1E)-5-phenylpent-1-enyl]-3,4,5,6-tetrahydro-1H-2,5-ethanoazepino[4,3-b]indole] | 58% | 5.27 µM | – | –
10 | c1ccc(COc2cccc3c4c([nH]c23)C2CCN(CC2)C4)cc1 [Example 26, 7-(benzyloxy)-3,4,5,6-tetrahydro-1H-2,5-ethanoazepino[4,3-b]indole] | 494% | 9.81 µM | – | –
11 | Cc1ccc(/C=C/c2cccc3c4c([nH]c23)CN2CCC4CC2)cn1 [Example 32, 9-[(E)-2-(6-methylpyridin-3-yl)vinyl]-3,4,5,10-tetrahydro-1H-2,5-ethanoazepino[3,4-b]indole] | 199% | 3.64 µM | – | –
12 | FC(F)(F)Oc1ccc(C#Cc2cccc3c4c([nH]c23)C2CCN(CC2)C4)cc1 [Example 20, 7-{[4-(trifluoromethoxy)phenyl]ethynyl}-3,4,5,6-tetrahydro-1H-2,5-ethanoazepino[4,3-b]indole] | 47% | > 30 µM | – | –
13 | c1cncc(-c2cccc3c4c([nH]c23)C2CCN(CC2)C4)c1 [Example 39, 7-(pyridin-3-yl)-3,4,5,6-tetrahydro-1H-2,5-ethanoazepino[4,3-b]indole] | 113% | 10.3 µM | – | –
14 | Cc1ccc(/C=C/c2cccc3c2NC2C4CCN(CC4)CC32)cn1 (stereo not drawn) [Example 36, (cis)-7-[(E)-2-(6-methylpyridin-3-yl)vinyl]-3,4,5,5a,6,10b-hexahydro-1H-2,5-ethanoazepino[4,3-b]indole] | – | – | 196% | 6.89 µM
15 | Cc1ccc(/C=C/c2cc(F)cc3c4c([nH]c23)C2CCN(CC2)C4)cn1 [Example 25, 9-fluoro-7-[(E)-2-(6-methylpyridin-3-yl)vinyl]-3,4,5,6-tetrahydro-1H-2,5-ethanoazepino[4,3-b]indole] | 127% | 3.42 µM | – | –
